Drawing on patent US10093623B2, “Cyclic amides as MetAP-2 inhibitors” (MERCK PATENT GmbH, priority 2012, dated 2018), this text covers IC50 for 37 compounds.

The assay addresses MetAP-2 (Homo sapiens, UniProt P50579). Kind of assay: MetAP-2 activity measurement (coupled enzymatic reactions, Met-Arg-Ser substrate, dianisidine detection at 450 nm). To be noted: Inhibition of MetAP-2; read-out: IC50 enzyme. The assay is classed as biochemical. The procedure, abridged: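 Coupled continuous assay with Met-Arg-Ser tripeptide substrate: released methionine oxidised by L-amino acid oxidase to give H2O2, which peroxidase uses to oxidise dianisidine, followed at 450 nm. Activity taken as slope of absorbance versus time over the visually linear region; dianisidine extinction coefficient converts to mol Met per time.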

Sequence of MetAP-2 (P50579 whole entry, species assumed): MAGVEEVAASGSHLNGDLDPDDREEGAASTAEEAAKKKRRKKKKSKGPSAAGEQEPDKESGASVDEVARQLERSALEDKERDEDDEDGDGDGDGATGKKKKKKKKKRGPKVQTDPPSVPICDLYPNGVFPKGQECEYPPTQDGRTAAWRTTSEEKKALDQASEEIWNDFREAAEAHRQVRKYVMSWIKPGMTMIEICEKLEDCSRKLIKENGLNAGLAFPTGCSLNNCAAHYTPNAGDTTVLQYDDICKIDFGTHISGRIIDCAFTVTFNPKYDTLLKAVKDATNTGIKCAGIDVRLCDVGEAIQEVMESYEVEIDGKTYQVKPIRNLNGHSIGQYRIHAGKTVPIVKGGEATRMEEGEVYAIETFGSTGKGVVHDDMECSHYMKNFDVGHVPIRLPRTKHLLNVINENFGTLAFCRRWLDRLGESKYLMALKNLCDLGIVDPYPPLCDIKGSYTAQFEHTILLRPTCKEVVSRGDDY

For `O=C(NCc1cc(F)cc(Cl)c1)C1(O)CCN(c2ccc3[nH]cc(C(F)(F)F)c3c2)C1=O` (stereo not shown) [B43, N-(3-Chloro-5-fluorobenzyl)-3-hydroxy-2-oxo-1-(3-trifluoromethyl-1H-indol-5-yl)-pyrrolidine-3-carboxamide], the IC50 is 10 to 1000 nM. In the case of `OC1(CNCc2cc(F)cc(F)c2)CCCN(Cc2ccccc2)C1` (stereo not shown) [B44, 1-Benzyl-3-[(3,5-difluorobenzylamino)methyl]-piperidin-3-ol] it was more than 10000 nM; in that of `O=C1N(c2ccccc2)CCC1(O)CNCc1ccc(F)cc1` (stereo not shown) [B45, 3-[(4-Fluorobenzylamino)-methyl]-3-hydroxy-1-phenyl-pyrrolidin-2-one], 1000 to 10000 nM. With `O=C1N(c2ccccc2)CCC1(O)CNCc1cc(F)cc(F)c1` (stereo not shown) [B46, 3-[(3,5-Difluorobenzylamino)-methyl]-3-hydroxy-1-phenyl-pyrrolidin-2-one], the IC50 was 10 to 1000 nM. In the case of `O=C1N(c2ccccc2)CCC1(O)CNCCc1ccc(F)cc1` (stereo not shown) [B47, 3-{[2-(4-Fluorophenyl)-ethylamino]methyl}-3-hydroxy-1-phenylpyrrolidin-2-one] it was 1000 to 10000 nM; in that of `O=C1N(c2ccccc2)CCC1(O)CNCc1cccc(F)c1` (stereo not shown) [B48, 3-[(3-Fluorobenzylamino)-methyl]-3-hydroxy-1-phenyl-pyrrolidin-2-one], 1000 to 10000 nM; in that of `Cc1ccc(CNCC2(O)CCN(c3ccccc3)C2=O)cc1` (stereo not shown) [B49, 3-Hydroxy-3-[(4-methyl-benzylamino)methyl]-1-phenyl-pyrrolidin-2-one], 10 to 1000 nM. Next, `O=C1CCc2cc(NC(=O)C3(O)CCN(c4ccc5c(c4)CCC(=O)N5)C3=O)ccc2N1` (stereo not shown) [B50, N-(2-Oxo-1,2,3,4-tetrahydro-quinolin-6-yl)-3-hydroxy-2-oxo-1-(2-oxo-1,2,3,4-tetrahydro-quinolin-6-yl)pyrrolidine-3-carboxamide]: more than 10000 nM; `CC(C)(C)OC(=O)N1CCC(O)(C(=O)OCc2ccccc2)C1=O` (stereo not shown) [B51, 3-Benzyl 1-tert-butyl 3-hydroxy-2-oxopyrrolidine-1,3-dicarboxylate]: more than 10000 nM; `O=C(NCc1cc(F)cc(Cl)c1)[C@@]1(O)CCN(c2cc(C(F)(F)F)ccn2)C1=O` [B52, N-(3-Chloro-5-fluorobenzyl)-(S)-3-hydroxy-2-oxo-1-(4-trifluoromethylpyridin-2-yl)-pyrrolidine-3-carboxamide]: 10 to 1000 nM. `CC(C)OC(=O)C1(O)CCN(C(=O)OCc2ccccc2)C1=O` (stereo not shown) [B53, 1-Benzyl 3-isopropyl 3-hydroxy-2-oxopyrrolidine-1,3-dicarboxylate]: the IC50 is more than 10000 nM.

Regarding `O=C1N(Cc2ccccc2)CCC[C@]1(O)CNCc1cc(F)cc(Cl)c1` [B54, (S)-1-Benzyl-3-[(3-chloro-5-fluorobenzylamino)methyl]-3-hydroxypiperidin-2-one], the IC50 was 10 to 1000 nM.

Turning to `O=C1N(Cc2ccccc2)CCC[C@@]1(O)CNCc1cc(F)cc(Cl)c1` [B55, (R)-1-Benzyl-3-[(3-chloro-5-fluorobenzylamino)methyl]-3-hydroxypiperidin-2-one], the IC50 fell in the range of 1000 to 10000 nM. Next, `O=C1CCc2cc(N3CC[C@](O)(C(=O)NCc4cccc(F)c4)C3=O)ccc2N1` [B56, N-(3-Fluorobenzyl)-(S)-3-hydroxy-2-oxo-1-(2-oxo-1,2,3,4-tetrahydroquinolin-6-yl)-pyrrolidine-3-carboxamide]: 10 to 1000 nM.

On to `O=C1CCc2cc(N3CC[C@@](O)(C(=O)NCc4cccc(F)c4)C3=O)ccc2N1` [B57, N-(3-Fluorobenzyl)-(R)-3-hydroxy-2-oxo-1-(2-oxo-1,2,3,4-tetrahydroquinolin-6-yl)-pyrrolidine-3-carboxamide], for which the IC50 is more than 10000 nM. Consider `O=C1N(c2ccccc2)CC[C@@]1(O)CNCc1cc(F)cc(Cl)c1` [B58, (R)-3-[(3-Chloro-5-fluorobenzylamino)methyl]-3-hydroxy-1-phenylpyrrolidin-2-one], for which the IC50 lay in the range of 1000 to 10000 nM. Consider `O=C1N(c2ccccc2)CC[C@]1(O)CNCc1cc(F)cc(Cl)c1` [B59, (S)-3-[(3-Chloro-5-fluorobenzylamino)methyl]-3-hydroxy-1-phenylpyrrolidin-2-one], for which the IC50 is 10 to 1000 nM.

As for `O=C(NCc1cc(F)cc(Cl)c1)[C@@]1(O)CCN(Cc2n[nH]c3ccccc23)C1=O` [B60, N-(3-Chloro-5-fluorobenzyl)-(S)-3-hydroxy-1-(1H-indazol-3-ylmethyl)-2-oxopyrrolidine-3-carboxamide], the IC50 was in the range of 10 to 1000 nM. `Cc1cc2cc(N3CC[C@@](O)(C(=O)NCc4cc(F)cc(Cl)c4)C3=O)cnc2[nH]1` [B61, N-(3-Chloro-5-fluorobenzyl)-(R)-3-hydroxy-1-(2-methyl-1H-pyrrolo[2,3-b]pyridin-5-yl)-2-oxo-pyrrolidine-3-carboxamide]: the IC50 lay within 1000 to 10000 nM. With `Cc1cc2cc(N3CC[C@](O)(C(=O)NCc4cc(F)cc(Cl)c4)C3=O)cnc2[nH]1` [B62, N-(3-Chloro-5-fluorobenzyl)-(S)-3-hydroxy-1-(2-methyl-1H-pyrrolo[2,3-b]pyridin-5-yl)-2-oxo-pyrrolidine-3-carboxamide], the IC50 is 10 to 1000 nM. In the case of `O=C1N(CC2CCCCC2)CCC[C@]1(O)CNCc1cc(F)cc(Cl)c1` [B63, (S)-3-[(3-Chloro-5-fluorobenzylamino)methyl]-1-cyclohexylmethyl-3-hydroxy-piperidin-2-one] it was 10 to 1000 nM; in that of `O=C1N(CC2CCCCC2)CCC[C@@]1(O)CNCc1cc(F)cc(Cl)c1` [B64, (R)-3-[(3-Chloro-5-fluorobenzylamino)methyl]-1-cyclohexylmethyl-3-hydroxy-piperidin-2-one], more than 10000 nM; in that of `O=C(NCc1cc(F)cc(Cl)c1)[C@@]1(O)CCN(c2ccc(C(F)(F)F)cc2F)C1=O` [B65, N-(3-Chloro-5-fluorobenzyl)-(S)-1-(2-fluoro-4-trifluoromethyl-phenyl)-3-hydroxy-2-oxo-pyrrolidine-3-carboxamide], 10 to 1000 nM. In the case of `Cc1ccc(N2CC[C@](O)(C(=O)NCc3cc(F)cc(Cl)c3)C2=O)c(F)c1` [B66, N-(3-Chloro-5-fluorobenzyl)-(S)-1-(2-fluoro-4-methylphenyl)-3-hydroxy-2-oxopyrrolidine-3-carboxamide] it was 10 to 1000 nM; in that of `O=C(NCc1cc(F)cc(Cl)c1)C1(O)CCCN(c2cc(C(F)(F)F)ccc2F)C1=O` (stereo not shown) [B67, N-(3-Chloro-5-fluorobenzyl)-1-(2-fluoro-5-trifluoromethyl-phenyl)-3-hydroxy-2-oxo-piperidine-3-carboxamide], 1000 to 10000 nM. Next, `O=C1CCc2cc(N3CCCC(O)(CNCc4cc(F)cc(Cl)c4)C3=O)ccc2N1` (stereo not shown) [B68, 6-{3-[(3-Chloro-5-fluorobenzylamino)methyl]-3-hydroxy-2-oxopiperidin-1-yl}-3,4-dihydro-1H-quinolin-2-one]: 1000 to 10000 nM. On to `O=C1CCc2cc(CN3CCC(O)(C(=O)NCc4cc(F)cc(Cl)c4)C3=O)ccc2N1` (stereo not shown) [B69, N-(3-Chloro-5-fluorobenzyl)-3-hydroxy-2-oxo-1-(2-oxo-1,2,3,4-tetrahydroquinolin-6-ylmethyl)-pyrrolidine-3-carboxamide], for which the IC50 was 10 to 1000 nM. In the case of `NC(=O)c1ccc(F)c(N2CC[C@](O)(C(=O)NCc3cc(F)cc(Cl)c3)C2=O)c1` [B70, N-(3-Chloro-5-fluorobenzyl)-(S)-1-(5-carbamoyl-2-fluorophenyl)-3-hydroxy-2-oxopyrrolidine-3-carboxamide] it was 10 to 1000 nM; in that of `O=C(NCc1cc(F)cc(Cl)c1)[C@@]1(O)CCN(c2ccc3[nH]c(=O)[nH]c3c2)C1=O` [B71, N-(3-Chloro-5-fluorobenzyl)-(S)-3-hydroxy-2-oxo-1-(2-oxo-2,3-dihydro-1H-benzimidazol-5-yl)-pyrrolidine-3-carboxamide], 10 to 1000 nM. In the case of `O=C(NCc1cc(F)cc(Cl)c1)[C@]1(O)CCN(c2ccc3[nH]cc(C(F)(F)F)c3c2)C1=O` [B73, N-(3-Chloro-5-fluorobenzyl)-(R)-3-hydroxy-2-oxo-1-(3-trifluoro-methyl-1H-indol-5-yl)pyrrolidine-3-carboxamide] it was more than 10000 nM; in that of `O=C(NCc1cc(F)cc(Cl)c1)[C@@]1(O)CCN(c2ccc3[nH]cc(C(F)(F)F)c3c2)C1=O` [B74, N-(3-Chloro-5-fluorobenzyl)-(S)-3-hydroxy-2-oxo-1-(3-trifluoro-methyl-1H-indol-5-yl)pyrrolidine-3-carboxamide], 10 to 1000 nM. `O=C(NCc1cc(F)cc(Cl)c1)[C@@]1(O)CCN(c2cnc3[nH]ncc3c2)C1=O` [B75, N-(3-Chloro-5-fluorobenzyl)-(S)-3-hydroxy-2-oxo-1-(1H-pyrazolo[3,4-b]pyridin-5-yl)-pyrrolidine-3-carboxamide]: the IC50 lay in the range of 10 to 1000 nM. Next, `O=C(NCc1cc(F)cc(Cl)c1)C1(O)CCN(c2cnc3[nH]c(C(F)(F)F)cc3c2)C1=O` (stereo not shown) [B76, N-(3-Chloro-5-fluorobenzyl)-3-hydroxy-2-oxo-1-(2-trifluoro-methyl-1H-pyrrolo[2,3-b]pyridin-5-yl)pyrrolidine-3-carboxamide]: 10 to 1000 nM. On to `O=C(NCc1cc(F)cc(Cl)c1)[C@@]1(O)CCN(c2ccc3[nH]c(=O)sc3c2)C1=O` [B77, N-(3-Chloro-5-fluorobenzyl)-(S)-3-hydroxy-2-oxo-1-(2-oxo-2,3-dihydrobenzothiazol-6-yl)-pyrrolidine-3-carboxamide], for which the IC50 lay in the range of 10 to 1000 nM. Consider `NC(=O)c1cc2cc(N3CC[C@](O)(C(=O)NCc4cc(F)cc(Cl)c4)C3=O)ccc2[nH]1` [B78, 5-[(S)-3-(3-Chloro-5-fluorobenzylcarbamoyl)-3-hydroxy-2-oxopyrrolidin-1-yl]-1H-indole-2-carboxamide], for which the concentration for half-maximal inhibition (IC50) lay within 10 to 1000 nM. Next, `NC(=O)c1cc2cc(N3CC[C@@](O)(C(=O)NCc4cc(F)cc(Cl)c4)C3=O)ccc2[nH]1` [B79, 5-[(R)-3-(3-Chloro-5-fluorobenzylcarbamoyl)-3-hydroxy-2-oxopyrrolidin-1-yl]-1H-indole-2-carboxamide]: 1000 to 10000 nM; `CCOC(=O)c1cc2cc(N3CC[C@](O)(C(=O)NCc4cc(F)cc(Cl)c4)C3=O)ccc2[nH]1` [B80, Ethyl 5-[(S)-3-(3-chloro-5-fluorobenzylcarbamoyl)-3-hydroxy-2-oxopyrrolidin-1-yl]-1H-indole-2-carboxylate]: 10 to 1000 nM.

One may read the IC50 as the midpoint of a concentration-inhibition curve.
